Patent US20040192686A1, “Benzoazine mono-N-oxides and benzoazine 1,4 dioxides and compositions therefrom for the therapeutic use in cancer treatments” (Auckland Uniservices Limited, priority 2003, published 2004)

Row | SMILES | melting point [°C]
1 | N#CCCNc1nc2ccccc2[n+]([O-])n1 [Compound 26, 3-[(1-Oxido-1,2,4-benzotriazin-3-yl)amino]propanenitrile] | 191 to 193
2 | N#CCCCNc1nc2ccccc2[n+]([O-])n1 [Compound 27, 4-[(1-Oxido-1,2,4-benzotriazin-3-yl)amino]butanenitrile] | 184 to 187
3 | [N-]=[N+]=NCCCNc1nc2ccccc2[n+]([O-])n1 [Compound 28, N-(3-Azidopropyl)-1,2,4-benzotriazin-3-amine 1-oxide] | 128 to 130
4 | CC(C)(C)OC(=O)NCCCNc1nc2ccccc2[n+]([O-])n1 [Compound 29, tert-Butyl 3-[(1-oxido-1,2,4-benzotriazin-3-yl)amino]propylcarbamate] | 145 to 147
5 | CCN(CCCNc1nc2ccccc2[n+]([O-])n1)C(=O)OC(C)(C)C [Compound 32, tert-Butyl 3-[(1-oxido-1,2,4-benzotriazin-3-yl)amino]propyl(ethyl)carbamate] | 64 to 66
6 | [N-]=[N+]=NCCOCCNc1nc2ccccc2[n+]([O-])n1 [Compound 34, 3-{[2-(2-Azidoethoxy)ethyl]amino}-1,2,4-benzotriazine 1-oxide] | 102 to 104
7 | CC(C)(C)ONC(=O)CCOCCNc1nc2ccccc2[n+]([O-])n1 [Compound 35, 3-{[2-(2-tert-Butyloxycarbamoylethoxy)ethyl]amino}-1,2,4-benzotriazine 1-oxide] | 134 to 137
8 | COCCc1cccc(Nc2nc3ccccc3[n+]([O-])n2)c1 [Compound 49, N-[3-(2-Methoxyethyl)phenyl]-1,2,4-benzotriazin-3-amine 1-oxide] | 122 to 124
9 | O=C(O)Cc1ccc(Nc2nc3ccccc3[n+]([O-])n2)cc1 [Compound 52, {4-[(1-Oxido-1,2,4-benzotriazin-3-yl)amino]phenyl}acetic acid] | 243 to 245
10 | COCCNC(=O)Cc1ccc(Nc2nc3ccccc3[n+]([O-])n2)cc1 [Compound 53, 2-{4-[(1-Oxido-1,2,4-benzotriazin-3-yl)amino]phenyl}-N-(2-methoxyethyl)acetamide] | 216 to 218
11 | CN(C)CCNC(=O)Cc1ccc(Nc2nc3ccccc3[n+]([O-])n2)cc1 [Compound 54, N-[2-(Dimethylamino)ethyl]-2-{4-[(1-oxido-1,2,4-benzotriazin-3-yl)amino]phenyl}acetamide] | 225 to 226
12 | [O-][n+]1nc(-c2ccccc2)nc2ccccc21 [Compound 57, 3-Phenyl-1,2,4-benzotriazine 1-oxide] | 125 to 127
13 | COc1ccc(-c2nc3ccccc3[n+]([O-])n2)cc1 [Compound 58, 3-(4-Methoxyphenyl)-1,2,4-benzotriazine 1-oxide] | 168 to 170
14 | C=Cc1nc2ccccc2[n+]([O-])n1 [Compound 59, 3-Vinyl-1,2,4-benzotriazine 1-oxide] | 85 to 86
15 | Cc1ccc2c(c1)nc(NCCN(C)C)n[n+]2[O-] [Compound 76, N^1,N^1-Dimethyl-N^2-(6-methyl-1-oxido-1,2,4-benzotriazin-3-yl)-1,2-ethanediamine] | 143 to 145
16 | Cc1cccc2nc(Cl)n[n+]([O-])c12 [Compound 100, 3-Chloro-8-methyl-1,2,4-benzotriazine 1-oxide] | 170 to 173
17 | Cc1cccc2nc(NCCN(C)C)n[n+]([O-])c12 [Compound 101, N^1,N^1-Dimethyl-N^2-(8-methyl-1-oxido-1,2,4-benzotriazin-3-yl)-1,2-ethanediamine] | 121 to 123
18 | Cc1cc2nc(Cl)n[n+]([O-])c2cc1C [Compound 104, 3-Chloro-6,7-dimethyl-1-oxido-1,2,4-benzotriazine] | 148 to 149
19 | Cc1cc2nc(NCCNC(=O)OC(C)(C)C)n[n+]([O-])c2cc1C [Compound 105, tert-Butyl 2-[(6,7-dimethyl-1-oxido-1,2,4-benzotriazin-3-yl)amino]ethylcarbamate] | 226 to 228
20 | Cc1cc2nc(NCCN(C)C)n[n+]([O-])c2cc1C [Compound 106, N^1-(6,7-Dimethyl-1-oxido-1,2,4-benzotriazin-3-yl)-N^2,N^2-dimethyl-1,2-ethanediamine] | 175 to 178
21 | Cc1cc(C)c2c(c1)nc(Cl)n[n+]2[O-] [Compound 108, 3-Chloro-6,8-dimethyl-1,2,4-benzotriazine 1-oxide] | 120 to 122
22 | Cc1cc(C)c2c(c1)nc(NCCN(C)C)n[n+]2[O-] [Compound 109, N^1-(6,8-Dimethyl-1-oxido-1,2,4-benzotriazin-3-yl)-N^2,N^2-dimethyl-1,2-ethanediamine] | 176 to 179
23 | COc1cc2nc(N)n[n+]([O-])c2cc1C [Compound 112, 6-Methoxy-7-methyl-1,2,4-benzotriazin-3-amine 1-oxide] | 289 to 292
24 | COc1cc2nc(Cl)n[n+]([O-])c2cc1C [Compound 113, 3-Chloro-6-methoxy-7-methyl-1,2,4-benzotriazine 1-oxide] | 180 to 182
25 | COc1cc2nc(NCCN(C)C)n[n+]([O-])c2cc1C [Compound 114, N^1-(6-Methoxy-7-methyl-1-oxido-1,2,4-benzotriazin-3-yl)-N^2,N^2-dimethyl-1,2-ethanediamine] | 167 to 169
26 | COc1cc2c(cc1C)nc(Cl)n[n+]2[O-] [Compound 117, 3-Chloro-7-methoxy-6-methyl-1,2,4-benzotriazine 1-oxide] | 200 to 202

Results, then the compound that gave them:

Row | melting point [°C] | SMILES
27 | 131 to 131.5 | [O-][n+]1nc(NCCOCCO)nc2ccccc21 [Compound 33, 3-{[2-(2-Hydroxyethoxy)ethyl]amino}-1,2,4-benzotriazine 1-oxide]
28 | 141 to 143 | [O-][n+]1nc(NCCN2CCCC2)nc2ccccc21 [Compound 40, N-[2-(1-Pyrrolidinyl)ethyl]-1,2,4-benzotriazin-3-amin 1-oxid]
29 | 170 to 172 | [O-][n+]1nc(NCCN2CCOCC2)nc2ccccc21 [Compound 41, N-[2-(4-Morpholinyl)ethyl]-1,2,4-benzotriazin-3-amine 1-oxide]
30 | 57 to 58 | C=CCc1nc2ccccc2[n+]([O-])n1 [Compound 60, 3-Allyl-1,2,4-benzotriazine 1-oxide]
31 | 105 to 107 | [O-][n+]1nc(CC2CO2)nc2ccccc21 (stereo not shown) [Compound 62, 3-(2-Oxiranylmethyl)-1,2,4-benzotriazine 1-oxide]
32 | 56 to 58 | COCCc1nc2ccccc2[n+]([O-])n1 [Compound 63, 3-(2-Methoxyethyl)-1,2,4-benzotriazine 1-oxide]
33 | 99 to 100 | [O-][n+]1nc(CCCO)nc2ccccc21 [Compound 66, 3-(3-Hydroxypropyl)-1,2,4-benzotriazine 1-oxid]
34 | 156 to 158 | Cc1ccc2c(c1)nc(Cl)n[n+]2[O-] [Compound 73, 3-Chloro-6-methyl-1,2,4-benzotriazine 1-oxide]
35 | 198 to 202 | Cc1ccc2c(c1)nc(NCCO)n[n+]2[O-] [Compound 74, 2-[(6-Methyl-1-oxido-1,2,4-benzotriazin-3-yl)amino]ethanol]
36 | 162 to 165 | Cc1ccc2c(c1)nc(NCCN1C(C)CCCC1C)n[n+]2[O-] (stereo not shown) [Compound 78, N-[2-(2,6-Dimethyl-1-piperidinyl)ethyl]-6-methyl-1,2,4-benzotriazin-3-amine 1-oxide]
37 | 65 to 67 | C=CCc1nc2cc(C)ccc2[n+]([O-])n1 [Compound 80, 3-Allyl-6-methyl-1,2,4-benzotriazine 1-oxide]
38 | 121 to 123 | Cc1ccc2c(c1)nc(CCO)n[n+]2[O-] [Compound 81, 2-(6-Methyl-1-oxido-1,2,4-benzotriazin-3-yl)ethanol]
39 | 196 to 199 | COc1ccc2c(c1)nc(Cl)n[n+]2[O-] [Compound 83, 3-Chloro-6-methoxy-1,2,4-benzotriazine 1-oxide]
40 | 133 to 135 | COc1ccc2c(c1)nc(NCCN1CCCCC1)n[n+]2[O-] [Compound 85, 6-Methoxy-N-[2-(1-piperidinyl)ethyl]-1,2,4-benzotriazin-3-amine 1-oxide]
41 | 186 to 188 | COc1ccc2c(c1)nc(NCCN1CCOCC1)n[n+]2[O-] [Compound 86, 6-Methoxy-N-[2-(4-morpholinyl)ethyl]-1,2,4-benzotriazin-3-amine 1-oxide]
42 | 166 to 168 | Cc1ccc2nc(NCCN3CCCCC3)n[n+]([O-])c2c1 [Compound 89, 7-Methyl-N-[2-(1-piperidinyl)ethyl]-1,2,4-benzotriazin-3-amine 1-oxide]
43 | 162 to 165 | COc1ccc2nc(NCCN3CCCCC3)n[n+]([O-])c2c1 [Compound 93, 7-Methoxy-N-[2-(1-piperidinyl)ethyl]-1,2,4-benzotriazin-3-amine 1-oxide]
44 | 208 to 212 | COc1ccc2nc(NCCN3CCOCC3)n[n+]([O-])c2c1 [Compound 94, 7-Methoxy-N-[2-(4-morpholinyl)ethyl]-1,2,4-benzotriazin-3-amine 1-oxide]
45 | 121 to 125 | COCCOc1ccc2nc(Cl)n[n+]([O-])c2c1 [Compound 96, 3-Chloro-7-(2-methoxyethoxy)-1,2,4-benzotriazine 1-oxide]
46 | 95 to 97 | CCc1nc2ccc(OCCOC)cc2[n+]([O-])n1 [Compound 97, 3-Ethyl-7-(2-methoxyethoxy)-1,2,4-benzotriazine 1-oxid]
47 | 144 to 146 | [O-][n+]1nc(Cl)nc2ccc(OCCN3CCOCC3)cc21 [Compound 98, 3-Chloro-7-[2-(4-morpholinyl)ethoxy]-1,2,4-benzotriazine 1-oxide]
48 | 99 to 101 | CCc1nc2ccc(OCCN3CCOCC3)cc2[n+]([O-])n1 [Compound 99, 3-Ethyl-7-[2-(4-morpholinyl)ethoxy]-1,2,4-benzotriazine 1-oxide]
49 | 177 to 178 | Cc1cc(C)c2c(c1)nc(NCCN1CCCCC1)n[n+]2[O-] [Compound 110, 6,8-Dimethyl-N-[2-(1-piperidinyl)ethyl]-1,2,4-benzotriazin-3-amine 1-oxide]
